We go through two compounds from paper PMC3375280 (PLoS ONE, 2012).

For this assay, the target named is T1, AT1 C76A/S109C/C289A mutant receptor (Rattus norvegicus, UniProt P25095, C289A/C76A/S109C).
T1 construct: expressed in transfected cells; host or cells: COS1
T1 sequence (P25095 1-359 C76A/S109C/C289A): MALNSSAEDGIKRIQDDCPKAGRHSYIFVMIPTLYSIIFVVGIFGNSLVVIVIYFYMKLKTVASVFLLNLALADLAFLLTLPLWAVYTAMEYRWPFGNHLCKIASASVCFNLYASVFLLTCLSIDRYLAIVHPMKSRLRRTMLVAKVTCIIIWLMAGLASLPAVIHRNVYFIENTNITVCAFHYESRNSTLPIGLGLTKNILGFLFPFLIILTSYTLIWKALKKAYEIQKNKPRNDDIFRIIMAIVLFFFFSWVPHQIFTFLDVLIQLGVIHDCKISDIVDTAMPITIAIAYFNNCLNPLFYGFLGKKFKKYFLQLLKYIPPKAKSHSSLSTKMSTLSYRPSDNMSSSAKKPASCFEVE
The assay is described as follows: substituted cysteine accessibility mapping (SCAM), C76A/S109C/C289A. The class given is binding. The following applies: 1 µM ARB, […] MTSEA+, COS1 membranes. More on the design: key: Less and More indicate that the AT1 receptor is less or more accessible to the ligand pocket, respectively; Less and More indicate that the AT1 receptor is less or more accessible to the ligand pocket, respectively; No change. An excerpt:
As we reported previously, the percentage (%) inhibition of ^125I-[Sar^1, Ile^8] AngII binding by methanethiosulphonate ethyl-ammonium (MTSEA^+) reagent was approximately 30% on AT1 receptor, since Cys^76 in TM2 was accessible to water within the ligand pocket. In addition, mechanical stretching increased the accessibility of Cys^289 by inducing a change in the conformation of TM7 [22]. To differentiate between single and multiple movements of one or more native cysteines, we created TM3 residues that were substituted with cysteine one at a time from […] to Phe^117 using the C76A/C289A mutant genetic background and evaluated each triple mutant for MTSEA sensitivity.
Figure 3 Changes in cysteine accessibility in COS1 cells expressing C76A/C289A mutant receptors in which the transmenbrane 3 residues from Ala^106 to Phe^117, except for position 113, were successively replaced by cysteine. 1 µM of ARBs, n=4–9, *p<0.05 vs. no treatment. #p<0.05 vs. C76A/C289A.
The SCAM method has been used to probe relative changes in the conformation of constitutively active AT1 receptor [20]–[22] and other GPCRs, [30] by validating the presence of Cys residues within the ligand pocket. We used a highly reactive, sulfhydryl-specific reaction with methanethiosulfonyl ethyl-ammonium (MTSEA^+), which reacts a billion times faster with water-exposed and ionized Cys than with lipid-exposed and un-ionized Cys. In this reaction, a positively charged sulfonylmethylammonium group is added to a water-exposed Cys. Aliquots of cell membranes are incubated with or without ARBs for 20 min in phosphate buffer at room temperature. The membranes are then diluted with same buffer and centrifuged. After washout the cell membranes, the membranes are incubated with 2.5 mM MTSEA^+ at room temperature for 2 min in HEPES buffer (pH7.4). The Membranes are then diluted with same buffer to stop the reaction and centrifuged. One hundred µl aliquots were used to assay for ^125I-[Sar^1,Ile^8]Ang II binding. […]

In the case of `CCCc1nc(C(C)(C)O)c(C(=O)O)n1Cc1ccc(-c2ccccc2-c2nnn[nH]2)cc1` [Olmesartan, olmesartan, reference compound], the “Cysteine accessibility at Ser109 compared to ligand (-)” value is “Less”. Moreover, under “listed as olmesartan”, the “Cysteine accessibility at Ser109 compared to ligand (-)” value is given as “less accessibility”.

With `CCCc1nc(C(C)(C)O)c(C(N)=O)n1Cc1ccc(-c2ccccc2-c2nnn[nH]2)cc1` [R239470], the “Cysteine accessibility at Ser109 compared to ligand (-)” value was “No change”.
